Assay results: patent US20230256092A1, “COMBINED USE OF ANTI-CCR8 ANTIBODY AND CHEMOTHERAPEUTIC AGENT” (Shionogi & Co., Ltd., priority 2020, published 2023)

Legend:
Format in all cases: in vivo, mouse
[1] = tested on: breast cancer-derived 4T1 cells; assay: Example 1: Balb/c mice inoculated with 4T1 cells, carboplatin combination; details: antibody 50 μg iv days 5, 8; carboplatin 114 mg/kg iv day 5; single groups 8, 12, 15, 18, 22 days after inoculation, combined from 8 days; Mann-Whitney U
Protocol: (§1) The back of each Balb/c mouse (6 weeks old, female) was intracutaneously inoculated with 2×10^5 breast cancer-derived 4T1 cells (50 μL).
(§2) To an anti-mouse CCR8 antibody single administration group, 50 μg (200 μL) of an anti-mouse CCR8 antibody (clone SA214G2, BioLegend, Inc.) was intravenously administered 5 and 8 days after tumor inoculation, and saline was intravenously administered at a volume of 11.4 mL/kg body weight 5 days after tumor inoculation (N=10). To a carboplatin single administration group, 50 μg (200 μL) of an isotype control antibody (clone LTF-2, Bio X Cell, Inc.) was intravenously administered 5 and 8 days after tumor inoculation, and carboplatin (trade name: PARAPLATIN, Bristol-Myers Squibb Company) at 114 mg/kg body weight was intravenously administered at a volume of 11.4 mL/kg body weight 5 days after tumor inoculation (N=10). […] Tumor volumes were measured every 3 to 4 days from 5 days after tumor inoculation. The tumor volume (mm^3) was measured in long diameter (mm)×short diameter (mm)×short diameter (mm)/2, and a significant difference test based on a Mann-Whitney U method (significance level: P<0.05) was conducted.

[2] = tested on: bladder cancer-derived MB49 cells; assay: Example 4: C57BL/6 mice inoculated with MB49 cells, carboplatin or cisplatin combination; details: antibody 50 μg iv days 4, 7; carboplatin 40 mg/kg or cisplatin 3 mg/kg iv day 4; single groups 7, 10, 14, 17, 18 days; carboplatin combination from 10 days, cisplatin combination from 14 days; Mann-Whitney U
Protocol: The back of each C57BL/6 mouse (6 weeks old, male) was intracutaneously inoculated with 2×10^5 bladder cancer-derived MB49 cells (50 μL).
To an anti-mouse CCR8 antibody single administration group, 50 μg (200 μL) of an anti-mouse CCR8 antibody (clone SA214G2, BioLegend, Inc.) was intravenously administered 4 and 7 days after tumor inoculation, and saline was intravenously administered at a volume of 10 mL/kg body weight 4 days after tumor inoculation (N=10).
To a carboplatin single administration group, 50 μg (200 uL) of an isotype control antibody (clone LTF-2, Bio X Cell, Inc.) was intravenously administered 4 and 7 days after tumor inoculation, and carboplatin (trade name: PARAPLATIN, Bristol-Myers Squibb Company) at 40 mg/kg body weight was intravenously administered at a volume of 10 mL/kg body weight 4 days after tumor inoculation (N=10). […]
Tumor volumes were measured every 1 to 4 days from 4 days after tumor inoculation. The tumor volume (mm^3) was measured in long diameter (mm)×short diameter (mm)×short diameter (mm)/2, and a significant difference test based on a Mann-Whitney U method (significance level: P<0.05) was conducted. […]

[3] = tested on: breast cancer-derived 4T1 cells; assay: Example 3: hCCR8-KI (KI/KI) mice inoculated with 4T1 cells, cisplatin combination; details: antibody 400 μg iv days 5, 8; cisplatin 8 mg/kg iv day 5; cisplatin single 8, 11, 13, 15, 18, 21, 25, 29 days, combined from 8 days; Mann-Whitney U
Protocol: To an anti-human CCR8 antibody single administration group, 400 μg (200 μL) of an anti-human CCR8 antibody (humanized 10A11 antibody (light chain variable region: IGKV4-1 N53Q+G29R (SEQ ID NO: 59)/heavy chain variable region: IGHV3-15 T94R (SEQ ID NO: 41))) was intravenously administered 5 and 8 days after tumor inoculation, and saline was intravenously administered at a volume of 16 mL/kg body weight 5 days after tumor inoculation (N=10). To a cisplatin single administration group, 200 μL of a control solution (obtained by diluting a buffer solution used for the antibody with saline in line with an antibody dilution ratio) was intravenously administered 5 and 8 days after tumor inoculation, and cisplatin (trade name: RANDA, Nippon Kayaku Co., Ltd.) at 8 mg/kg body weight was intravenously administered at a volume of 16 mL/kg body weight 5 days after tumor inoculation (N=10). […] Tumor volumes were measured every 2 to 4 days from 5 days after tumor inoculation. The tumor volume (mm^3) was measured in long diameter (mm)×short diameter (mm)×short diameter (mm)/2, and a significant difference test based on a Mann-Whitney U method (significance level: P<0.05) was conducted.

[4] = tested on: lung cancer-derived ASB-XIV cells; assay: Example 7: hCCR8-KI (KI/KI) mice inoculated with ASB-XIV cells, cisplatin combination; details: antibody 1 mg/kg iv and cisplatin 3 mg/kg iv day 5; 14, 17 and 19 days after tumor inoculation; Mann-Whitney U
Protocol: To an anti-human CCR8 antibody single administration group, an anti-human CCR8 antibody (humanized 10A11 antibody (light chain variable region: IGKV4-1 N53Q+G29R (SEQ ID NO: 59)/heavy chain variable region: IGHV3-15 T94R (SEQ ID NO: 41))) at 1 mg/10 mL/kg body weight and saline at 10 mL/kg body weight were intravenously administered 5 days after tumor inoculation (N=10). To a cisplatin single administration group, a control solution at 10 mL/kg body weight and cisplatin (trade name: RANDA, Nippon Kayaku Co., Ltd.) at 3 mg/10 mL/kg body weight were intravenously administered 5 days after tumor inoculation (N=10). To an anti-human CCR8 antibody and cisplatin combined administration group, an anti-human CCR8 antibody at 1 mg/10 mL/kg body weight and cisplatin at 3 mg/10 mL/kg body weight were intravenously administered 5 days after tumor inoculation (N=10). To a control group, a control solution at 10 mL/kg body weight and saline at 10 mL/kg body weight were intravenously administered 5 days after tumor inoculation (N=10). Tumor volumes were measured every 2 to 5 days from 5 days after tumor inoculation. The tumor volume (mm^3) was measured in long diameter (mm)×short diameter (mm)×short diameter (mm)/2, and a significant difference test based on a Mann-Whitney U method (significance level: P<0.05) was conducted.

[5] = tested on: breast cancer-derived 4T1 cells; assay: Example 2: Balb/c mice inoculated with 4T1 cells, gemcitabine combination; details: antibody 50 μg iv days 5, 8; gemcitabine 50 mg/kg iv day 5; gemcitabine single 8, 12, 15, 18, 22 days, combined from 8 days; Mann-Whitney U
Protocol: as §1
as §2, with “10” for “11.4”, “gemcitabine” for “carboplatin”, “GEMZAR, Eli Lilly Inc.)” for “PARAPLATIN, Bristol-Myers Squibb Company)”, “50” for “114”

[6] = tested on: lung cancer-derived ASB-XIV cells; assay: Example 8: hCCR8-KI (KI/KI) mice inoculated with ASB-XIV cells, paclitaxel combination
Protocol: To an anti-human CCR8 antibody single administration group, an anti-human CCR8 antibody (humanized 10A11 antibody (light chain variable region: IGKV4-1 N53Q+G29R (SEQ ID NO: 59)/heavy chain variable region: IGHV3-15 T94R (SEQ ID NO: 41))) at 0.5 mg/10 mL/kg body weight and saline at 10 mL/kg body weight were intravenously administered 5 days after tumor inoculation (N=10). To a paclitaxel single administration group, saline at 10 mL/kg body weight and paclitaxel (trade name: TAXOL, Bristol-Myers Squibb Company) at 8 mg/10 mL/kg body weight were intravenously administered 5 days after tumor inoculation (N=10). To an anti-human CCR8 antibody and paclitaxel combined administration group, an anti-human CCR8 antibody at 0.5 mg/10 mL/kg body weight and paclitaxel at 8 mg/10 mL/kg body weight were intravenously administered 5 days after tumor inoculation (N=10). To a control group, saline was intravenously administered at 20 mL/kg 5 days after tumor inoculation (N=10). Tumor volumes were measured every 2 to 5 days from 5 days after tumor inoculation. The tumor volume (mm^3) was measured in long diameter (mm)×short diameter (mm)×short diameter (mm)/2, and a significant difference test based on a Student's T: one-sided test method (significance level: P<0.05) was conducted.

## N.N.O=C([O-])C1(C(=O)[O-])CCC1.[Pt+2] [carboplatin]
[1]
  tumor volume as compared to the control group: no significant difference
[2]
  tumor volume as compared to the control group: no significant difference

## N.N.[Cl][Pt][Cl] [cisplatin, reference compound]
[3]
  tumor volume as compared to the control group: significant decrease
[2]
  tumor volume as compared to the control group: no significant difference
[4]
  tumor volume as compared to the control group: no significant decrease

## Nc1ccn([C@@H]2O[C@H](CO)[C@@H](O)C2(F)F)c(=O)n1 [gemcitabine]
[5]
  tumor volume as compared to the control group: significant decrease

## CC(=O)O[C@H]1C(=O)[C@@]2(C)[C@H]([C@H](OC(=O)c3ccccc3)[C@]3(O)C[C@H](OC(=O)[C@H](O)[C@@H](NC(=O)c4ccccc4)c4ccccc4)C(C)=C1C3(C)C)[C@]1(OC(C)=O)CO[C@@H]1C[C@@H]2O [paclitaxel]
[6]; antibody 0.5 mg/kg iv and paclitaxel 8 mg/kg iv day 5, antibody single 10, 12, 14, 18 days, paclitaxel single 10 and 12 days, combined from 10 days, Student's T one-sided
  tumor volume as compared to the control group: significant decrease
[6]; paclitaxel 8 mg/kg iv day 5, 14 and 17 days after tumor inoculation
  tumor volume as compared to the control group, later time points: the significant difference disappeared
